Here are results for three compounds from patent US6610747B2, “Phenoxybenzylamine derivatives as SSRIs” (Pfizer Inc., priority 2000, dated 2003).

The target of the assay is T1, human serotonin transporter (hSERT) (Homo sapiens, UniProt P31645).
T1 construct: expressed in transfected cells; host or cells: HEK-293
The experiment in a line: Inhibition of 3H-serotonin uptake in HEK-293 cells stably transfected with the human serotonin transporter (SRI). In kind it is cell-based. The following applies: HEK-293 cells expressing hSERT; 3H-5HT (50 nM); 5 min incubation; room temperature; read-out: serotonin re-uptake inhibition (SRI) IC50. As to the method:
A number of compounds were tested for biological activity by their ability to inhibit the uptake of serotonin by human serotonin transporters as follows.
Human embryonic kidney cells (HEK-293) stably transfected with either the human serotonin transporter (hSERT), noradrenaline transporter (hNET) or dopamine transporter (hDAT) were cultured under standard cell culture techniques (cells were grown at 37° C. and 5% CO2 in DMEM-culture media (supplemented with 10% dialysed foetal calf serum (FCS), 2mM l-glutamine and 250 μg/ml geneticin)). Cells were harvested for the assay to yield a cell suspension of 750,000 cells/ml.
(i) Determination of Inhibitor Potency
All test compounds were dissolved in 100% DMSO and diluted down in assay buffer to give appropriate test concentrations. Assays were carried out in 96-well filter bottom plates. Cells (7500 cells/assay well) were pre-incubated in standard assay buffer containing either test compound, standard inhibitor or compound vehicle (1% DMSO) for 5 minutes. Reactions were started by addition of either ^3H-Serotonin, ^3H-Noradrenaline or ^3H-Dopamine substrates. All reactions were carried out at room temperature in a shaking incubator. Incubation times were 5 minutes for the hSERT and hDAT assays and 15 minutes for the hNET assay. Reactions were terminated by removal of the reaction mixture using a vacuum manifold followed by rapid washing with ice cold assay buffer. The quantity of ^3H-substrate incorporated into the cells was then quantified.
Assay plates were dried in a microwave oven, scintillation fluid added, and radioactivity measured.
(iii) Standard Assay Buffer Composition
Trizma hydrochloride (26 mM)
Note: The pH of the buffer was adjusted to 7.40 with 1M NaOH before addition of CaCl2 and pargyline.
(iv) Summary of Assay Parameters

T1 sequence (P31645 whole entry): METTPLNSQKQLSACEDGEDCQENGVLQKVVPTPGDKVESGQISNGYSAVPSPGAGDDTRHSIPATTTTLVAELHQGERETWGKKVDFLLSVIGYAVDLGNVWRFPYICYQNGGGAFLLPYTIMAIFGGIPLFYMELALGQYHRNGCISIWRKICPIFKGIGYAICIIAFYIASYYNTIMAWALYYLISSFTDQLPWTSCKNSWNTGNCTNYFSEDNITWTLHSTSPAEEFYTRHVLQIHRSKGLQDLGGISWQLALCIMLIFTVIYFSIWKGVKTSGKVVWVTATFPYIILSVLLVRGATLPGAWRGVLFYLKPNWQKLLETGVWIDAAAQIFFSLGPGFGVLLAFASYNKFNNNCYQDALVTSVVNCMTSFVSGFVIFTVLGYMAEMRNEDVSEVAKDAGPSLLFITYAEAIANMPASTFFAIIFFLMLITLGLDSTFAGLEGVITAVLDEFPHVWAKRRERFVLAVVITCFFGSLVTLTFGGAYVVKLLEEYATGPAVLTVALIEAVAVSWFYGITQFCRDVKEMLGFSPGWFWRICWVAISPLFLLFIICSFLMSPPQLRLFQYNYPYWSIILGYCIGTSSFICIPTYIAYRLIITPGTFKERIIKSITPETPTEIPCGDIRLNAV

For the compound `CN(C)Cc1ccccc1Oc1ccc2ncccc2c1` [Example 29, N,N-dimethyl-N-[2-(6-quinolinyloxy)benzyl]amine], the half-inhibitory concentration (IC50) stood at 2 nM.
The same measure for `CNCc1cc(C(=O)NC)ccc1Oc1ccc2c(c1)CCS2` [Example 62, 4-(2,3-dihydro-1-benzothien-5-yloxy)-N-methyl-3-[(methylamino)methyl]-benzamide]: 3.7 nM; for `CN(C)Cc1cc(S(N)(=O)=O)ccc1Oc1ccc2c(c1)CCS2` [Example 16, 4-(2,3-dihydro-1-benzothien-5-yloxy)-3-[(dimethylamino)methyl]-benzenesulfonamide]: 4.7 nM.

For orientation: IC50 means the concentration that gives 50% inhibition.
